In ChEMBL document CHEMBL5150076, “Discovery of Novel Orally Bioavailable Triazoles with Potent and Broad-Spectrum Antifungal Activity In Vitro and In Vivo” (J Med Chem, 2022):
In brackets after ≈: the same amount, converted by molar mass. Blank lines part the entries; values can stand above or below the molecule they belong to.

Key:
Format in all cases: functional
Cryptococcus neoformans [1] = assay: Antifungal activity against Cryptococcus neoformans H99 incubated for 72 hrs by microbroth dilution method
Aspergillus fumigatus = assay: Antifungal activity against Aspergillus fumigatus 7544 incubated for 48 hrs by microbroth dilution method
Candida albicans [2] = assay: Antifungal activity against Candida albicans SC5314 incubated for 24 hrs by microbroth dilution method
Trichophyton rubrum = assay: Antifungal activity against Trichophyton rubrum cmccftla
Candida albicans [3] = assay: Antifungal activity against Candida albicans Y0109
Cryptococcus neoformans [4] = assay: Antifungal activity against Cryptococcus neoformans 32605
Nakaseomyces glabratus [5] = assay: Antifungal activity against Candida glabrata 537
Nannizzia gypsea = assay: Antifungal activity against Microsporum gypseum
Candida parapsilosis [6] = assay: Antifungal activity against Candida parapsilosis 22019; details: Lodderomyces parapsilosis
Pichia kudriavzevii [7] = assay: Antifungal activity against Candida krusei 463
Candida parapsilosis [8] = assay: Antifungal activity against Candida parapsilosis 700; details: Lodderomyces parapsilosis
[Candida] auris [9] = Antifungal activity against Candida auris BS12372; details: Candidozyma auris
Candida parapsilosis [10] = assay: Antifungal activity against Candida parapsilosis 660; details: Lodderomyces parapsilosis
[Candida] auris [11] = Antifungal activity against Candida auris 887; details: Candidozyma auris
Candida albicans [12] = assay: Antifungal activity against Candida albicans 20#
Candida parapsilosis [13] = assay: Antifungal activity against Candida parapsilosis 90018; details: Lodderomyces parapsilosis
Candida albicans [14] = assay: Antifungal activity against Candida albicans 14#
Candida tropicalis [15] = assay: Antifungal activity against Candida tropicalis ATCC750
[Candida] auris [16] = Antifungal activity against Candida auris 791; details: Candidozyma auris
[Candida] auris [17] = Antifungal activity against Candida auris D12; details: Candidozyma auris
Candida albicans [18] = assay: Antifungal activity against Candida albicans 162
Pichia kudriavzevii [19] = assay: Antifungal activity against Candida krusei 397
Candida albicans [20] = assay: Antifungal activity against Candida albicans 28#
Candida tropicalis [21] = assay: Antifungal activity against Candida tropicalis 112936
Candida albicans [22] = assay: Antifungal activity against Candida albicans 305
Pichia kudriavzevii [23] = assay: Antifungal activity against Candida krusei 629
Candida albicans [24] = assay: Antifungal activity against Candida albicans 25#
Candida albicans [25] = assay: Antifungal activity against Candida albicans 12#
Nakaseomyces glabratus [26] = assay: Antifungal activity against Candida glabrata ATCC2001
Pichia kudriavzevii [27] = assay: Antifungal activity against Candida krusei 467

MIC (Cryptococcus neoformans [1]): 0.25 µg/mL (≈ 0.57 µM) | MIC (Aspergillus fumigatus): > 64 µg/mL | MIC (Candida albicans [2]): 0.125 µg/mL (≈ 0.285 µM)
Structure (SMILES): CC(=O)c1ccc(-n2cc([C@H](C)[C@](O)(Cn3cncn3)c3ccc(F)cc3F)nn2)cc1

MIC (Cryptococcus neoformans [1]): 4 µg/mL (≈ 10 µM) | MIC (Aspergillus fumigatus): 64 µg/mL (≈ 161 µM) | MIC (Candida albicans [2]): 0.5 µg/mL (≈ 1.26 µM)
Structure (SMILES): C[C@@H](c1cn(-c2cncnc2)nn1)[C@](O)(Cn1cncn1)c1ccc(F)cc1F

MIC (Cryptococcus neoformans [1]): 0.0625 µg/mL (≈ 0.133 µM) | MIC (Aspergillus fumigatus): 2 µg/mL (≈ 4.27 µM) | MIC (Candida albicans [2]): 0.0156 µg/mL (≈ 0.0333 µM)
Structure (SMILES): CCCCOc1ccc(-n2cc([C@H](C)[C@](O)(Cn3cncn3)c3ccc(F)cc3F)nn2)cc1

MIC (Cryptococcus neoformans [1]): 0.0156 µg/mL (≈ 0.0362 µM) | MIC (Aspergillus fumigatus): 4 µg/mL (≈ 9.28 µM) | MIC (Candida albicans [2]): 0.0625 µg/mL (≈ 0.145 µM)
Structure (SMILES): C[C@@H](c1cn(-c2ccc(Cl)cc2)nn1)[C@](O)(Cn1cncn1)c1ccc(F)cc1F

MIC (Cryptococcus neoformans [1]): 0.5 µg/mL (≈ 0.895 µM) | MIC (Aspergillus fumigatus): > 64 µg/mL | MIC (Candida albicans [2]): 0.125 µg/mL (≈ 0.224 µM)
Structure (SMILES): C[C@@H](c1cn(-c2ccc(OCc3ccc(C(C)(C)C)cc3)cc2)nn1)[C@](O)(Cn1cncn1)c1ccc(F)cc1F

MIC (Cryptococcus neoformans [1]): 0.125 µg/mL (≈ 0.278 µM) | MIC (Aspergillus fumigatus): 2 µg/mL (≈ 4.44 µM) | MIC (Candida albicans [2]): 0.125 µg/mL (≈ 0.278 µM)
Structure (SMILES): C[C@@H](c1cn(-c2cc(F)c(F)c(F)c2)nn1)[C@](O)(Cn1cncn1)c1ccc(F)cc1F

MIC (Trichophyton rubrum): 0.15 µg/mL (≈ 0.312 µM) | MIC (Candida albicans [3]): 0.0313 µg/mL (≈ 0.0652 µM) | MIC (Cryptococcus neoformans [4]): 0.0625 µg/mL (≈ 0.13 µM) | MIC (Cryptococcus neoformans [1]): 0.0625 µg/mL (≈ 0.13 µM) | MIC (Aspergillus fumigatus): 4 µg/mL (≈ 8.33 µM) | MIC (Nakaseomyces glabratus [5]): 0.125 µg/mL (≈ 0.26 µM) | MIC (Candida albicans [2]): 0.0313 µg/mL (≈ 0.0652 µM) | MIC (Nannizzia gypsea): 2 µg/mL (≈ 4.16 µM) | MIC (Candida parapsilosis [6]): 0.125 µg/mL (≈ 0.26 µM)
Structure (SMILES): C[C@@H](c1cn(-c2ccc(OC(F)(F)F)cc2)nn1)[C@](O)(Cn1cncn1)c1ccc(F)cc1F

MIC (Cryptococcus neoformans [1]): 0.125 µg/mL (≈ 0.289 µM) | MIC (Aspergillus fumigatus): 8 µg/mL (≈ 18.5 µM) | MIC (Candida albicans [2]): 0.0625 µg/mL (≈ 0.145 µM)
Structure (SMILES): C[C@@H](c1cn(-c2ccc(F)c(F)c2)nn1)[C@](O)(Cn1cncn1)c1ccc(F)cc1F

MIC (Cryptococcus neoformans [1]): 0.0625 µg/mL (≈ 0.145 µM) | MIC (Aspergillus fumigatus): 8 µg/mL (≈ 18.5 µM) | MIC (Candida albicans [2]): 0.0625 µg/mL (≈ 0.145 µM)
Structure (SMILES): C[C@@H](c1cn(-c2cc(F)cc(F)c2)nn1)[C@](O)(Cn1cncn1)c1ccc(F)cc1F

MIC (Cryptococcus neoformans [1]): 0.0625 µg/mL (≈ 0.133 µM) | MIC (Aspergillus fumigatus): 2 µg/mL (≈ 4.27 µM) | MIC (Candida albicans [2]): 0.0625 µg/mL (≈ 0.133 µM)
Structure (SMILES): C[C@@H](c1cn(-c2c(F)c(F)cc(F)c2F)nn1)[C@](O)(Cn1cncn1)c1ccc(F)cc1F

MIC (Cryptococcus neoformans [1]): 4 µg/mL (≈ 8.43 µM) | MIC (Aspergillus fumigatus): > 64 µg/mL | MIC (Candida albicans [2]): 0.5 µg/mL (≈ 1.05 µM)
Structure (SMILES): C[C@@H](c1cn(-c2ccc(S(C)(=O)=O)cc2)nn1)[C@](O)(Cn1cncn1)c1ccc(F)cc1F

MIC (Cryptococcus neoformans [1]): 0.125 µg/mL (≈ 0.29 µM) | MIC (Aspergillus fumigatus): 32 µg/mL (≈ 74.3 µM) | MIC (Candida albicans [2]): 0.125 µg/mL (≈ 0.29 µM)
Structure (SMILES): C[C@@H](c1cn(-c2ccc(Cl)cc2)nn1)[C@](O)(Cn1cncn1)c1cc(F)ccc1F

MIC (Aspergillus fumigatus): > 64 µg/mL | MIC (Candida albicans [2]): 0.125 µg/mL (≈ 0.237 µM)
Structure (SMILES): C[C@@H](c1cn(-c2ccc(OCc3ccc(C#N)cc3)cc2)nn1)[C@](O)(Cn1cncn1)c1ccc(F)cc1F

MIC (Cryptococcus neoformans [1]): 0.125 µg/mL (≈ 0.289 µM) | MIC (Aspergillus fumigatus): 2 µg/mL (≈ 4.63 µM) | MIC (Candida albicans [2]): 0.125 µg/mL (≈ 0.289 µM)
Structure (SMILES): C[C@@H](c1cn(-c2c(F)cccc2F)nn1)[C@](O)(Cn1cncn1)c1ccc(F)cc1F

MIC (Cryptococcus neoformans [1]): 0.125 µg/mL (≈ 0.269 µM) | MIC (Aspergillus fumigatus): > 8 µg/mL
Structure (SMILES): C[C@@H](c1cn(-c2ccc(Cl)cc2Cl)nn1)[C@](O)(Cn1cncn1)c1ccc(F)cc1F

MIC (Trichophyton rubrum): 0.25 µg/mL (≈ 0.578 µM) | MIC (Candida albicans [3]): 0.0313 µg/mL (≈ 0.0724 µM) | MIC (Cryptococcus neoformans [4]): 0.0313 µg/mL (≈ 0.0724 µM) | MIC (Cryptococcus neoformans [1]): 0.0625 µg/mL (≈ 0.145 µM) | MIC (Aspergillus fumigatus): 2 µg/mL (≈ 4.63 µM) | MIC (Nakaseomyces glabratus [5]): 0.0625 µg/mL (≈ 0.145 µM) | MIC (Candida albicans [2]): 0.0625 µg/mL (≈ 0.145 µM) | MIC (Nannizzia gypsea): 2 µg/mL (≈ 4.63 µM) | MIC (Candida parapsilosis [6]): 0.0625 µg/mL (≈ 0.145 µM)
Structure (SMILES): C[C@@H](c1cn(-c2cc(F)ccc2F)nn1)[C@](O)(Cn1cncn1)c1ccc(F)cc1F

MIC (Cryptococcus neoformans [1]): 0.0625 µg/mL (≈ 0.119 µM) | MIC (Aspergillus fumigatus): 2 µg/mL (≈ 3.8 µM) | MIC (Candida albicans [2]): 0.0156 µg/mL (≈ 0.0296 µM)
Structure (SMILES): C[C@@H](c1cn(-c2ccc(OCC(F)(F)C(F)F)cc2)nn1)[C@](O)(Cn1cncn1)c1ccc(F)cc1F

MIC (Cryptococcus neoformans [1]): 0.25 µg/mL (≈ 0.593 µM) | MIC (Aspergillus fumigatus): > 64 µg/mL | MIC (Candida albicans [2]): 0.125 µg/mL (≈ 0.297 µM)
Structure (SMILES): C[C@@H](c1cn(-c2ccc(C#N)cc2)nn1)[C@](O)(Cn1cncn1)c1ccc(F)cc1F

Structure (SMILES): CCC(C)n1ncn(-c2ccc(N3CCN(c4ccc(OCC5COC(Cn6cncn6)(c6ccc(Cl)cc6Cl)O5)cc4)CC3)cc2)c1=O (stereo unspecified) [ITRACONAZOLE]
MIC (Pichia kudriavzevii [7]): 1 µg/mL (≈ 1.42 µM) | MIC (Candida parapsilosis [8]): 4 µg/mL (≈ 5.67 µM) | MIC ([Candida] auris [9]): 1 µg/mL (≈ 1.42 µM) | MIC (Candida parapsilosis [10]): 1 µg/mL (≈ 1.42 µM) | MIC ([Candida] auris [11]): 4 µg/mL (≈ 5.67 µM) | MIC (Candida albicans [12]): 0.5 µg/mL (≈ 0.709 µM) | MIC (Candida parapsilosis [13]): 0.5 µg/mL (≈ 0.709 µM) | MIC (Candida albicans [14]): > 64 µg/mL | MIC (Candida tropicalis [15]): > 16 µg/mL | MIC ([Candida] auris [16]): 4 µg/mL (≈ 5.67 µM) | MIC ([Candida] auris [17]): 4 µg/mL (≈ 5.67 µM) | MIC (Candida albicans [18]): > 64 µg/mL | MIC (Pichia kudriavzevii [19]): 2 µg/mL (≈ 2.83 µM) | MIC (Candida albicans [20]): 0.5 µg/mL (≈ 0.709 µM) | MIC (Candida tropicalis [21]): > 16 µg/mL | MIC (Candida albicans [22]): > 16 µg/mL | MIC (Pichia kudriavzevii [23]): 1 µg/mL (≈ 1.42 µM) | MIC (Candida albicans [24]): > 64 µg/mL | MIC (Candida albicans [25]): > 64 µg/mL | MIC (Nakaseomyces glabratus [26]): 2 µg/mL (≈ 2.83 µM) | MIC (Pichia kudriavzevii [27]): 2 µg/mL (≈ 2.83 µM)

MIC (Cryptococcus neoformans [1]): 0.0625 µg/mL (≈ 0.116 µM) | MIC (Aspergillus fumigatus): > 64 µg/mL | MIC (Candida albicans [2]): 0.5 µg/mL (≈ 0.931 µM)
Structure (SMILES): C[C@@H](c1cn(-c2ccc(OCc3ccc(Cl)cc3)cc2)nn1)[C@](O)(Cn1cncn1)c1ccc(F)cc1F

MIC (Cryptococcus neoformans [1]): 2 µg/mL (≈ 5.03 µM) | MIC (Aspergillus fumigatus): 32 µg/mL (≈ 80.5 µM) | MIC (Candida albicans [2]): 0.25 µg/mL (≈ 0.629 µM)
Structure (SMILES): C[C@@H](c1cn(-c2cccnc2)nn1)[C@](O)(Cn1cncn1)c1ccc(F)cc1F
